Source: ChEMBL document CHEMBL1147921, “SAR studies on thiazolo[4,5-d]pyrimidine based CXCR2 antagonists involving a novel tandem displacement reaction” (Bioorg Med Chem Lett, 2007)
≈ marks a conversion by molar mass, not a printed value.

How the values were obtained:
[1] = molecular target: T1, C-X-C chemokine receptor type 2 (Homo sapiens, UniProt P25025); assay: Displacement of [125I]IL8 from human CXCR2 expressed in HEK 293 by SPA; type: cell-based, HEK293
T1 sequence (P25025 whole entry): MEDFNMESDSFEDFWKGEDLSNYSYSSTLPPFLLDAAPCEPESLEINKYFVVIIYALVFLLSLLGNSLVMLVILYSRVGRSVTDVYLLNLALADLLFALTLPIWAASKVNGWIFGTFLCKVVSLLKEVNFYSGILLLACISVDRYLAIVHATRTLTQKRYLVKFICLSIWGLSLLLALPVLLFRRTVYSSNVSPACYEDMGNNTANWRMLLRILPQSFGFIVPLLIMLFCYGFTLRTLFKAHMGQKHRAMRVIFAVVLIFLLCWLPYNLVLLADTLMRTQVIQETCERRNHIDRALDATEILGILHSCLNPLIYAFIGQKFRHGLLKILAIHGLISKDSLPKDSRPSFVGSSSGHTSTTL

[2] = Bioavailability in po dosed rat; type: ADME, organism-based; conditions: in vivo
[3] = Permeability from apical to basolateral side of the human Caco-2 cell membrane; type: ADME, cell-based; conditions: read-out: permeability
[4] = Permeability from basolateral to apical side of the human Caco-2 cell membrane; type: ADME, cell-based; conditions: read-out: permeability
[5] = Volume of distribution at steady state in iv dosed rat; type: ADME, organism-based; conditions: in vivo, read-out: Vss
[6] = Half life in iv dosed rat; type: ADME, organism-based; conditions: in vivo
[7] = Solubility at pH 7.4; type: physicochemical; conditions: buffer
[8] = Protein binding in human plasma; type: ADME, cell-free; conditions: read-out: PPB (converted)
[9] = Permeability across human Caco-2 cell membrane; type: ADME, cell-based; conditions: read-out: permeability
[10] = molecular target: T1, C-X-C chemokine receptor type 2; assay: Antagonistic activity against human CXCR2 in neutrophils assessed as blockade of GROalpha stimulated calcium mobilisation by FLIPR; type: functional

Row | SMILES | IC50 [1] | other results
1 | CCN(CC)c1nc2nc(SCc3cccc(F)c3F)nc(NC(CO)CO)c2s1 | 1580 nM | 
2 | Cc1nc(CSc2nc(N[C@H](C)CO)c3sc(N)nc3n2)cs1 | 126 nM | 
3 | Nc1nc2nc(SCc3cccc(F)c3F)nc(N3CCCC3CO)c2s1 (configuration not stated) | > 1000 nM | 
4 | CC(C)(CO)Nc1nc(SCc2ccco2)nc2nc(N)sc12 | 100 nM | 
5 | CCN(CC)c1nc2nc(SCc3cccc(F)c3F)nc(N[C@H](C)CO)c2s1 | 398 nM | 
6 | Cc1nc(CSc2nc(NC(C)(C)CO)c3sc(N)nc3n2)cs1 | 1000 nM | 
7 | CC(CO)(CO)Nc1nc(SCc2cccc(F)c2F)nc2nc(N)sc12 | 79.4 nM | 
8 | CC[C@H](CO)Nc1nc(SCc2cccc(F)c2F)nc2nc(NC(C)C)sc12 | 100 nM | 
9 | C[C@H](CO)Nc1nc(SCc2cccc(F)c2F)nc2nc(NC3CC3)sc12 | 20 nM | 
10 | C[C@H](CO)Nc1nc(SCc2cccc(F)c2F)nc2nc(N)sc12 |  | bioavailability [2]: 9%; Papp A→B [3]: 2.47 ×10⁻⁶ cm/s; Papp B→A [4]: 13.7 ×10⁻⁶ cm/s; Vd [5]: 1.03 L/kg; half-life [6]: 1.2 h; solubility [7]: 1.5 µg/mL (≈ 3.91 µM)
11 | CC(C)Nc1nc2nc(SCc3cccc(F)c3F)nc(N[C@H](C)CO)c2s1 | 31.6 nM | 
12 | OCC(CO)Nc1nc(SCc2cccc(F)c2F)nc2nc(NC3CC3)sc12 | 100 nM | 
13 | CC(C)(CO)Nc1nc(SCc2cccc(F)c2F)nc2nc(N)sc12 | 25.1 nM | fraction unbound [8]: 0.016; Papp [9]: 3.6 ×10⁻⁶ cm/s; IC50 [10]: 15.8 nM

Continued, in another order:

Row | IC50 [1] | SMILES | other results
14 | 7.94 nM | CNc1nc2nc(SCc3cccc(F)c3F)nc(N[C@H](C)CO)c2s1 | 
15 | 15.8 nM | C[C@H](CO)Nc1nc(SCc2cccc(Cl)c2Cl)nc2nc(N)sc12 | 
16 | 31.6 nM | C[C@H](CO)Nc1nc(SCc2ccco2)nc2nc(N)sc12 | 
17 | 12.6 nM | C[C@H](CO)Nc1nc(SCc2cccc(Cl)c2)nc2nc(N)sc12 | 
18 | 12.6 nM | C[C@H](CO)Nc1nc(SCc2ccccc2F)nc2nc(N)sc12 | 
19 | 15.8 nM | C[C@@H](O)[C@@H](CO)Nc1nc(SCc2cccc(F)c2F)nc2nc(N)sc12 | 
20 | 15.8 nM | C[C@H](CO)Nc1nc(SCc2cccc(F)c2)nc2nc(N)sc12 | 
21 | 31.6 nM | C[C@H](CO)Nc1nc(SCc2ccccc2Cl)nc2nc(N)sc12 | 
22 | 25.1 nM | CC[C@H](CO)Nc1nc(SCc2cccc(F)c2F)nc2nc(N)sc12 | 
23 | 3.98 nM | C[C@H](CO)Nc1nc(SCc2cccc(Cl)c2F)nc2nc(N)sc12 | 
24 | 31.6 nM | Nc1nc2nc(SCc3cccc(F)c3F)nc(NC(CO)CO)c2s1 | 
